The values that follow come from patent US20080255238A1, “COMPOSITION CONTAINING A THIOUREA DERIVATIVE FOR PREVENTING OR TREATING PRURITIC OR IRRITANT SKIN DISEASES” (AMOREPACIFIC CORPORATION, priority 2004, published 2008).

Structures are written as SMILES.

What all share (format): in vivo
One assay deals with BALB/C mice. Put plainly: Itching induced by compound 48/80 (C48/80) in BALB/C mice, oral administration. The conditions noted are these: scratching frequency over 30 min, C48/80 1 h after dosing, BALB/C mice. The text has this: Itching Induced by Compound 48/80 (C48/80) in BALB/C Mice
The frequency of scratching induced by an itching-inducing substance varies depending on mouse strain. For example, it was reported that BALB/C mice are less sensitive to histamines and serotonin than ICR mice (Inagaki et al., 2001, Skin Pharmacol. Appl. Skin Physiol., 14, pp 87-96). […] In this experiment, BALB/C mice received C48/80 to induce itching. One day before the experiment, the rostral part of the skin on the back of BALB/C mice (19˜21 g, 6˜12 mice/group) was clipped. After compound 1 was dissolved in HP-β-CD, and compounds 2 and 3 were dissolved in a physiological saline solution containing 10% ethanol and 10% Tween 80, the solutions were orally administered (10 ml/kg) to the mice. One hour after the administration, C48/80 (50 μg/50 μl/mouse) was dissolved in a physiological saline solution and injected intradermally into the back skin of mice. Immediately after the injection, the mice were housed in a transparent cage and then the frequency of scratching of the injected site by the hind paws was counted for 30 minutes. The frequency of scratching in test groups administered with the drugs was compared to that in a control group administered with C48/80 alone. The decrease in the frequency of scratching in the test groups was determined as an index of inhibitory effects on itching. The decrease in the frequency of scratching was expressed as a percentage of inhibition to determine inhibitory effects of each compound on itching.

The test system of assay [1] is ICR mice. In words: Inhibition of skin irritation induced by tacrolimus in ICR mice. To be noted: intradermal; for % Inhibition (mean ± SE): scratching frequency over 30 min, tacrolimus 50 μg/mouse i.d. The text has this: Inhibition of Skin Irritation Induced by Tacrolimus in ICR Mice
Subcutaneous Administration
Tacrolimus is an immunosuppressant widely used in liver and renal transplantation (Lawrence, 1998, Dermatol. Ther., 5, pp 74-84). Tacrolimus is currently used in the form of ointment for treating skin diseases, such as atopic dermatitis (Wollenberg et al., 2001, J. Allergy. Clin. Immunol., 107, pp 519-525), psoriasis (Nasr, 2000, Clin. Exp. Dermatol., 25, pp 250-254), allergic contact dermatitis (Lauerma et al., 1992, Lancet, 340, p 556), and the like. However, it was reported that tacrolimus enhances irritation in human models with irritant contact dermatitis (Fuchs et al., 2002, Contact dermatitis, 46, pp 290-294). It was reported that tacrolimus causes side effects, such as skin irritation, itching and erythema, in its initial stage of use (Gupta et al., 2002, JEADV, 16, pp 100-114; Gupta and Chow, 2003, JEADV, 17, pp 493-503). No experimental model of skin irritation by tacrolimus in animal experiments is currently known. Accordingly, tacrolimus as a skin-irritant substance was directly injected to ICR mice by intradermal injection, and then scratching behavior of the mice was observed. One day before the experiment, the rostral part of the skin on the back male ICR mice (30˜33 g, 10 mice/group) was clipped. After the drug (compound 1, 50 μl/mouse) was dissolved in 28% hydroxypropyl-β-cyclodextrin (HP-β-CD; Mitsubishi Ltd., Japan) and tacrolimus (50 μg/50 μl/mouse, Cipla, India) was dissolved in a physiological saline solution containing 5% ethanol and 5% Tween 80, the solutions were simultaneously injected intradermally into the back skin of mice. Immediately after the injection, the mice were placed in a transparent cage and then the frequency of scratching of the injected site by the hind paws was counted for 30 minutes. The frequency of scratching in test groups administered with the drug was compared to that in a group administered with tacrolimus alone. […] The decrease in the frequency of scratching was expressed as a percentage of inhibition to determine inhibitory effects of each compound on skin irritation.

For assay [2], the system named is ICR mice. Put plainly: Itching induced by histamine in ICR mice, oral administration. The conditions noted are these: for % Inhibition (mean ± SE): scratching frequency over 30 min, histamine 100 nmol/mouse i.d. 1 h after dosing. From the text: Itching Induced by Histamine in ICR Mice
It is known that the itching response induced by histamine in rodents is generally weaker than that in humans (Kuraishi et al., 1995, Eur. J. Pharmacol. 275, pp 229-233). However, it is known that uniquely, ICR mice sensitively respond to histamine, and this leads to itching response (Maekawa et al., 2000, Jpn. J. Pharmacol. 84, pp 462-466). As is widely known, histamines are representative itching mediators and obviously induce itching in human subjects (Simone et al., 1987, Somatosens. Res. 5, pp 81-92). In this experiment, ICR mice received […]. One day before the experiment, the rostral part of the skin on the back of male ICR mice (28˜32 g, 5˜8 mice/group was clipped. The mice were fasted for 18 hours before experimentation. The drug (compound 1, 0.5 ml/mouse) was dissolved in hydroxypropyl-β-cyclodextrin (HP-β-CD; Mitsubishi Ltd., Japan), and then orally administered to the mice. One hour after the administration, histamine (100 nmol/50 μl/mouse) was dissolved in a physiological saline solution and injected intradermally into the back skin of mice. Immediately after the injection, the mice were placed in a transparent cage, and then the frequency of scratching of the injected site by the hind paws was counted for 30 minutes. The frequency of scratching in test groups administered with the drug was compared to that in a control group administered with histamine alone. The decrease in the frequency of scratching in the test groups was determined as an index of inhibitory effects on itching. The decrease in the frequency of scratching was expressed as a percentage of inhibition to determine inhibitory effects of each compound on itching.

On to `CC(C)(C)c1ccc(CNC(=S)NCc2ccc(NS(C)(=O)=O)c(F)c2)cc1` [Compound 1, 1-(4-t-butylbenzyl)-3-(3-fluoro-4-methanesulfonylaminobenzyl)thiourea], for which the “% Inhibition (mean ± SE)” value is recorded as −22.90 ± 13.19% with BALB/C mice (dose 3 mg); 42.24 ± 24.48% in the assay with BALB/C mice (dose 10 mg); 42.97 ± 7.13% in the assay on BALB/C mice (dose 30 mg); 54.11 ± 18.50% with BALB/C mice (dose 100 mg); 33.74 ± 37.73% in the assay on ICR mice [1] (dose 0.1 mg/mouse); 52.03 ± 24.14% in the assay with ICR mice [1] (dose 0.3 mg/mouse). For the same compound, the “% Inhibition (mean ± SE)” value was found to be 106.91 ± 30.13% in the assay on ICR mice [1] (dose 1 mg/mouse), 39.8 ± 18.1% in the assay on ICR mice [2] (dose 10 mg/mouse), 46.7 ± 24.0% in the assay on ICR mice [2] (dose 30 mg/mouse) and 75.8 ± 26.9% in the assay on ICR mice [2] (dose 100 mg/mouse). For the same compound, the “inhibitory effects on skin irritation (in words)” value in the assay on ICR mice [1] (tacrolimus) is reported as “inhibitory effects on skin irritation in a dose-dependent manner”. Also, the “antipruritic effects (in words)” value in the assay with ICR mice [2] (histamine) is reported as “potent anti-pruritic effects in a dose-dependent manner”.
